Measurements reported in ChEMBL document CHEMBL1777750, “Design strategies to target crystallographic waters applied to the Hsp90 molecular chaperone” (Bioorg Med Chem Lett, 2011).

Key:
[1] = Displacement of tritium-labeled resorcinol amide ligand from HSP90 by scintillation proximity assay
[2] = target: Heat shock protein HSP90 (Homo sapiens, UniProt P07900+P08238); test: Inhibition of HSP90 in human H1299 cells assessed as degradation of Akt protein after 24 hrs by luminex assay; format: cell-based
[3] = Binding affinity to HSP90 by isothermal titration calorimetry assay

Row | Structure (SMILES) | Ki [1] | IC50 [2] | Kd [3]
1 | COc1cc(-c2nc(C)nc3[nH]c(C)c(C#N)c23)c(Cl)cc1Cl |  | 700 nM | 
2 | COc1cc(-c2cc(N)nc(C)n2)c(Cl)cc1Cl | 10000 nM |  | 
3 | COc1ccccc1-c1cc(C)nc(N)n1 | 7900 nM |  | 3500 nM
4 | Cc1cc(-c2ccccc2)nc(N)n1 | 22000 nM | > 10000 nM | 
5 | COc1cc(-c2nc(C)nc3[nH]cc(C#N)c23)c(Cl)cc1Cl |  | 1000 nM | 
6 | Cc1cc(-c2cccn2C(=O)OC(C)(C)C)nc(N)n1 | 3700 nM |  | 
7 | COc1cc(Cl)ccc1-c1cc(C)nc(N)n1 | 2700 nM | 27000 nM | 
8 | COc1cc(-c2nc(C)nc3[nH]c(C)cc23)c(Cl)cc1Cl | 2000 nM |  | 

The next lines start with the values.

Row | Ki [1] | IC50 [2] | Kd [3] | Structure (SMILES)
9 | 200 nM | 2000 nM |  | COc1cc(-c2nc(C)nc3[nH]cc(Cl)c23)c(Cl)cc1Cl
10 | 350 nM | 10500 nM | 104 nM | Cc1cc(-c2ccc(Cl)cc2Cl)nc(N)n1
11 | 100 nM |  |  | COc1cc(-c2nc(C)nc3[nH]c(C)c(Cl)c23)c(Cl)cc1Cl
12 | 300 nM | 45000 nM |  | CC(C)(C)OC(=O)n1cccc1-c1cc(Cl)nc(N)n1
13 | 15 nM | 500 nM |  | CCc1[nH]c2nc(C)nc(-c3cc(OC)c(Cl)cc3Cl)c2c1C#N
14 | 1700 nM |  |  | COc1cc(-c2nc(C)nc3[nH]ccc23)c(Cl)cc1Cl
15 | 200 nM |  |  | COc1cc(-c2nc(C)nc3[nH]cc(C(C)=O)c23)c(Cl)cc1Cl
16 | 140 nM | 10000 nM |  | COc1cc(-c2cc(C)nc(N)n2)c(Cl)cc1Cl
17 | 200 nM |  |  | COc1cc(-c2nc(C)nc3[nH]cc(F)c23)c(Cl)cc1Cl
